Laboratory results published in article PMC2074469.

How the values were obtained:
aromatase [1] = target: T1, aromatase (Homo sapiens, UniProt P11511); conditions: cited from earlier work
T1 construct: from tissue; host or cells: peripheral tissues of healthy post-menopausal female volunteers (in vivo; serum oestrogens measured)
T1 sequence (P11511 1-503): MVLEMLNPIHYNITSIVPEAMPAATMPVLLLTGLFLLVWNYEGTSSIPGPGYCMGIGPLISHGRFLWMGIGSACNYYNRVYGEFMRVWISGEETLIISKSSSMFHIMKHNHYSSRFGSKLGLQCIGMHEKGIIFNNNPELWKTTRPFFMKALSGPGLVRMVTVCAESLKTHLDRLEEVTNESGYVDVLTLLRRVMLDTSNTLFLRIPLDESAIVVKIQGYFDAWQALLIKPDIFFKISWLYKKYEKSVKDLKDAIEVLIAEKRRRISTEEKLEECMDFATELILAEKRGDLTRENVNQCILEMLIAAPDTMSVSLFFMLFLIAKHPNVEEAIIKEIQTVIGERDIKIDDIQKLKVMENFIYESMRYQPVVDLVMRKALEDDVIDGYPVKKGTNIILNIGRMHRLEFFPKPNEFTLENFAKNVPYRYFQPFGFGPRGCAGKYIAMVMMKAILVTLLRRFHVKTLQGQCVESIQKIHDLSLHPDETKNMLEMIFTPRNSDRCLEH

[2] = cited from earlier work
[3] = test system: adrenal gland steroidogenesis; conditions: cited from earlier work
aromatase [4] = target: T1, aromatase; test: Serum oestradiol suppression in healthy post-menopausal female volunteers (trials 1 and 2); type: in vivo; conditions: for women with serum oestradiol below the limit of detection of the assay: limit of detection 3 pmol l-1; for mean BS oestradiol concentration 24 h after dosing on days 13 and 14, adjusted geometric mean / BS oestradiol AUC days 1-14, adjusted geometric mean: baseline-scaled; for BS oestradiol AUC days 1-14, adjusted geometric mean: normalised by time; for mean post-dose scaled oestradiol suppression compared with baseline: mean of 24 h after doses on days 13 and 14
Protocol: (§1) Summary Two multiple-dose studies were conducted in healthy post-menopausal female volunteers to investigate the pharmacokinetics and effects on endocrinology of Arimidex (ZD1033). Volunteers in the first trial were dosed with 3 mg of ZD1033 daily over 10 days to assess the effects on endocrinology of ZD1033 and establish the pharmacokinetic profile. In the second trial volunteers received 14 daily doses of either 0.5 or 1.0 mg of ZD1033 to assess the pharmacokinetics of ZD1033 and the effects of low doses of ZD1033 on serum oestradiol concentrations. […] Keywords: Arimidex; aromatase inhibitor; oestrogen Breast cancer is the most common type of cancer in women, accounting for 10% of all female cancers. […] ZD1033 is an achiral benzyltriazole derivative, 2,2[5-(1 H- 12,4-triazol- I -ylmethyl)- 1,3-phenylene] bis (2- methyl-propriononitrile) (Figure 1). […] ZD1033 is currently being evaluated in identical phase III efficacy and tolerability studies vs megestrol acetate in post- menopausal women with advanced breast cancer in the USA and Europe. This paper describes two studies that investigated the pharmacokinetic profile, selectivity, tolerability and efficacy in oestradiol suppression of multiple doses of ZD1033. The objective of the studies was to determine the minimum dose required for maximal suppression of circulating oestradiol, while retaining selectivity for the aromatase enzyme. […] Methods The two trials were randomised, double-blind, placebo- controlled multiple-dose studies in healthy post-menopausal female volunteers aged between 45 and 62 years (inclusive). Both trials had the same entry criteria and were of similar design. In the first study (trial 1), a total of eight volunteers were given eight doses of 3 mg of ZD1033 over 10 days to assess tolerability, pharmacokinetics and effects on endocrinology. In the second study (trial 2) a total of 14 volunteers were given 0.5 and 1 mg doses of ZD1033 daily for 14 days to assess the tolerability, pharmacokinetics and effect on serum oestradiol concentrations only. […] The key inclusion criteria were: at least one intact ovary; cervical smear negative for malignancy within the previous 12 months; normal clinical laboratory parameters and; normal clinical examination. Key exclusion criteria were a history of malignant breast disease or previous hysterectomy as a result of malignancy. […] A dose of 3 mg ZD1033 or matching placebo was then given on the following 7 consecutive days (study days 4-10). […] Samples for assay of serum aldosterone, cortisol, 17- hydroxyprogesterone (17-HP), dehydroepiandrosterone sul- phate (DHEA-S), luteinising hormone (LH), FSH and adrenocorticotrophic hormone (ACTH) were collected before and 3 h after dosing on study days 1 and 10 of both treatment periods. Additional samples for cortisol assay were also collected before dosing on study days 3, 5, 7 and 9 in both treatment periods. An ACTH stimulation test was performed 3 h after the dose on study day 10.

aromatase [5] = target: T1, aromatase; test: Serum oestrone suppression, trial 1 (3 mg of ZD1033 vs placebo); type: in vivo
Protocol: as §1

adrenal steroidogenesis = test: Serum adrenal steroid concentrations, trial 1 (cortisol, aldosterone, 17-HP, androstenedione, DHEA-S); type: in vivo, human
Protocol: as §1

gonadotrophin release = test: Serum pituitary hormones, trial 1 (ACTH, LH, FSH); type: in vivo, human; conditions: for scaled FSH: percentage change of scaled geometric mean relative to placebo / scaled LH: percentage change of scaled geometric mean relative to placebo: 3 mg
Protocol: as §1

[6] = test system: steroid response to ACTH challenge; test: ACTH stimulation test (synacthen), trial 1 study day 10; type: in vivo, human; conditions: 3 mg, 30 and 60 min after ACTH
Protocol: (§2) Summary Two multiple-dose studies were conducted in healthy post-menopausal female volunteers to investigate the pharmacokinetics and effects on endocrinology of Arimidex (ZD1033). Volunteers in the first trial were dosed with 3 mg of ZD1033 daily over 10 days to assess the effects on endocrinology of ZD1033 and establish the pharmacokinetic profile. In the second trial volunteers received 14 daily doses of either 0.5 or 1.0 mg of ZD1033 to assess the pharmacokinetics of ZD1033 and the effects of low doses of ZD1033 on serum oestradiol concentrations. […] Keywords: Arimidex; aromatase inhibitor; oestrogen Breast cancer is the most common type of cancer in women, accounting for 10% of all female cancers. […] ZD1033 is an achiral benzyltriazole derivative, 2,2[5-(1 H- 12,4-triazol- I -ylmethyl)- 1,3-phenylene] bis (2- methyl-propriononitrile) (Figure 1). […] ZD1033 is currently being evaluated in identical phase III efficacy and tolerability studies vs megestrol acetate in post- menopausal women with advanced breast cancer in the USA and Europe. This paper describes two studies that investigated the pharmacokinetic profile, selectivity, tolerability and efficacy in oestradiol suppression of multiple doses of ZD1033. The objective of the studies was to determine the minimum dose required for maximal suppression of circulating oestradiol, while retaining selectivity for the aromatase enzyme. […]

[7] = human, in vivo
Protocol: as §2

clinical = conditions: female, human, plasma, oral; for half-life: mean half-life
[8] = 3 mg vs placebo, not statistically significant

SMILES: C[C@]12CCC(=O)C(O)=C1CC[C@@H]1[C@@H]2CC[C@]2(C)C(=O)CC[C@@H]12 [formestane]
- oestradiol suppression (aromatase [1]; in vivo): 49- 64%
- adverse reactions ([2]; 250 mg i.m. once every 2 weeks, ref Hoffken et al., 1993): injection site reactions

SMILES: CCC1(c2ccc(N)cc2)CCC(=O)NC1=O (centres unmarked) [aminoglutethimide]
- selectivity for the aromatase enzyme ([3]; 250 mg q.i.d., also inhibits adrenal gland steroidogenesis, ref Lonning and Johannessen, 1991): non-selective
- toxicity ([2]; ref Lonning and Johannessen, 1991): marked toxicity

SMILES: N#Cc1ccc(C(c2ccc(C#N)cc2)n2cncn2)cc1 [letrozole]
- reduction in oestradiol levels (aromatase [1]; ref Iveson et al., 1993): up to 86%
- selectivity: interference with adrenal steroidogenesis ([3]; in vivo): no reports of letrozole interfering

SMILES: CC(C)(C#N)c1cc(Cn2cncn2)cc(C(C)(C)C#N)c1 [ZD1033, 2,2[5-(1 H-12,4-triazol-I -ylmethyl)-1,3-phenylene] bis (2-methyl-propriononitrile)]
- reduction in serum oestradiol levels (to the limit of detection of the available assay) (aromatase [4]; 1 mg daily p.o.): > 80%
- reduction in concentration of serum oestradiol of baseline following multiple dosing (aromatase [4]; all three doses (0.5, 1.0, 3 mg daily)): approximately 80%
- minimal dose required for maximal suppression of oestradiol (aromatase [4]; from number of volunteers below assay limit of detection 24 h after last dose): 1.0 mg
- decrease of oestradiol concentration compared with placebo values (aromatase [4]; trial 1, 3 mg daily days 4-10, by day 8, P = 0.004): approximately 80%
- oestradiol suppression compared with placebo values (aromatase [4]; trial 1, 3 mg, 24 h after the last dose): 70%
- reduction of mean serum oestradiol concentration compared with placebo (aromatase [4]; trial 1, 3 mg, by 48 h after the first dose, P = 0.001): approximately 70%
- recovery of serum oestradiol after first dose (aromatase [4]; trial 1, single 3 mg dose, up to 72 h): no recovery apparent by 72 h
- reduction of mean scaled oestradiol AUC 24 h after dosing on days 1-14 (aromatase [4]; trial 2, 0.5 mg daily): 82%
- women with serum oestradiol below the limit of detection of the assay (aromatase [4]; trial 2, 0.5 mg daily, 24 h after the last dose): one out of six
- mean post last dose oestradiol concentration (aromatase [4]; trial 2, 0.5 mg daily, baseline mean 46 pmol l-1): 5.9 pmol/L
- mean BS oestradiol concentration 24 h after dosing on days 13 and 14, adjusted geometric mean (aromatase [4]; trial 2, 0.5 mg daily): 0.156
- BS oestradiol AUC days 1-14, adjusted geometric mean (aromatase [4]; trial 2, 0.5 mg daily): 0.175
- mean post-dose scaled oestradiol suppression compared with baseline (aromatase [4]; trial 2, 0.5 mg daily): 84%
- reduction of mean scaled oestradiol AUC 24 h after dosing on days 1-14 (aromatase [4]; trial 2, 1.0 mg daily): 84%
- women with serum oestradiol below the limit of detection of the assay (aromatase [4]; trial 2, 1 mg daily, 24 h after the last dose): five out of seven
- mean post last dose oestradiol concentration (aromatase [4]; trial 2, 1.0 mg daily, baseline mean 28 pmol l-1): 3.2 pmol/L
- mean BS oestradiol concentration 24 h after dosing on days 13 and 14, adjusted geometric mean (aromatase [4]; trial 2, 1.0 mg daily): 0.138
- BS oestradiol AUC days 1-14, adjusted geometric mean (aromatase [4]; trial 2, 1.0 mg daily): 0.160
- mean post-dose scaled oestradiol suppression compared with baseline (aromatase [4]; trial 2, 1.0 mg daily): 86%
- duration of suppression of mean oestradiol concentrations (aromatase [4]; trial 2, 0.5 and 1 mg daily for 14 days): remained suppressed from 3 h after the first dose to 6 days after the last dose
- treatment effect (ratio 0.5 - 1.0 mg), BS oestradiol AUC days 1-14 (aromatase [4]; trial 2, 95% confidence (0.52, 2.30), P 0.794): 1.09
- treatment effect (ratio 0.5 - 1.0 mg), mean BS oestradiol days 13 and 14 (aromatase [4]; trial 2, 95% confidence (0.55, 2.33), P 0.713): 1.13
- recovery in oestradiol after the last dose (aromatase [4]; up to 144 h after the last dose): no recovery
- scaled oestrone: percentage reduction in geometric mean relative to placebo (aromatase [5]; 96 h after dose on day 10): 39.7%
- scaled oestrone: percentage reduction in geometric mean relative to placebo (aromatase [5]; Day 2): 36.2%
- scaled oestrone: percentage reduction in geometric mean relative to placebo (aromatase [5]; Day 3): 29.4%
- scaled oestrone: percentage reduction in geometric mean relative to placebo (aromatase [5]; Day 4): 34.6%
- scaled oestrone: percentage reduction in geometric mean relative to placebo (aromatase [5]; Day 6): 41.1%
- scaled oestrone: percentage reduction in geometric mean relative to placebo (aromatase [5]; Day 8): 34.8%
- scaled oestrone: percentage reduction in geometric mean relative to placebo (aromatase [5]; Day 10): 44.9%
- maximal suppression of mean serum oestrone compared with placebo values (aromatase [5]; from study day 6 onwards): approximately 40%
- recovery of serum oestrone after the last dose (aromatase [5]; up to 96 h after the last dose): no recovery apparent by 96 h after the last dose
- alteration in mean serum concentration of DHEA-S relative to placebo (adrenal steroidogenesis; 3 mg): No clinically significant alterations
- change in mean serum concentration of cortisol (adrenal steroidogenesis; 3 mg vs placebo): No statistically significant changes
- change in mean serum concentration of 17-HP (adrenal steroidogenesis; [8]): no consistent changes
- change in mean serum concentration of aldosterone (adrenal steroidogenesis; [8]): no consistent changes
- change in mean serum concentration of androstenedione (adrenal steroidogenesis; [8]): no consistent changes
- scaled 17-HP: percentage change of scaled geometric mean relative to placebo (adrenal steroidogenesis; 3 mg, Day 1, 3 h after dose): -26.9%
- scaled aldosterone: percentage change of scaled geometric mean relative to placebo (adrenal steroidogenesis; 3 mg, Day 1, 3 h after dose): -12.9%
- scaled 17-HP: percentage change of scaled geometric mean relative to placebo (adrenal steroidogenesis; 3 mg, Day 10, 3 h after dose): 48.9%
- scaled aldosterone: percentage change of scaled geometric mean relative to placebo (adrenal steroidogenesis; 3 mg, Day 10, 3 h after dose): 21.0%
- scaled 17-HP: percentage change of scaled geometric mean relative to placebo (adrenal steroidogenesis; 3 mg, Day 10, pre-dose): 3.8%
- scaled aldosterone: percentage change of scaled geometric mean relative to placebo (adrenal steroidogenesis; 3 mg, Day 10, pre-dose): 24.6%
- effect on ACTH, LH or FSH (gonadotrophin release; 3 mg vs placebo): None of the data suggested an effect
- scaled FSH: percentage change of scaled geometric mean relative to placebo (gonadotrophin release; Day 1, 3 h after dose): 0.01%
- scaled LH: percentage change of scaled geometric mean relative to placebo (gonadotrophin release; Day 1, 3 h after dose): -9.5%
- scaled FSH: percentage change of scaled geometric mean relative to placebo (gonadotrophin release; Day 10, 3 h after dose): -3.4%
- scaled LH: percentage change of scaled geometric mean relative to placebo (gonadotrophin release; Day 10, 3 h after dose): 12.2%
- scaled FSH: percentage change of scaled geometric mean relative to placebo (gonadotrophin release; Day 10, pre-dose): 1.54%
- scaled LH: percentage change of scaled geometric mean relative to placebo (gonadotrophin release; Day 10, pre-dose): -9.3%
- difference of 17-HP after ACTH stimulation from values obtained on placebo [6]: up to 12%
- difference of cortisol after ACTH stimulation from values obtained on placebo [6]: up to 12%
- changes in blood pressure, pulse rate or ECG [7]: no evidence of changes
- Cmax (clinical; 0.5 mg): 5.97 ng/mL
- Tmax (clinical; 0.5 mg): 2 h
- half-life (clinical; 0.5 mg): 45.7 h
- Cmax (clinical; 1 mg): 13.7 ng/mL
- Tmax (clinical; 1 mg): 2 h
- half-life (clinical; 1 mg): 40.6 h
- Tmax (clinical; 3 mg): 3 h
- half-life (clinical; 3 mg, after the first dose of 3 mg): 50.7 h
- half-life (clinical; 3 mg, after the last dose of 3 mg): 45.4 h
